From article PMC7915588, “Polyphyllin D Shows Anticancer Effect through a Selective Inhibition of Src Homology Region 2-Containing Protein Tyrosine Phosphatase-2 (SHP2)” (Molecules, 2021)

Assays:
Experiment in all cases: biochemical
Parameters in all cases: Fluorogenic phosphatase assay, DiFMUP hydrolysis by recombinant PTPs, initial velocity, Ex/Em 355/460 nm
Conditions in all cases: read-out: Inhibition by 20 µM polyphyllin D (%)
PTPN13 (PTP-BAS) = biological target: T1, PTPN13 (PTP-BAS) (Homo sapiens, UniProt Q12923)
T1 construct: 2095-2490
T1 sequence (Q12923 whole entry): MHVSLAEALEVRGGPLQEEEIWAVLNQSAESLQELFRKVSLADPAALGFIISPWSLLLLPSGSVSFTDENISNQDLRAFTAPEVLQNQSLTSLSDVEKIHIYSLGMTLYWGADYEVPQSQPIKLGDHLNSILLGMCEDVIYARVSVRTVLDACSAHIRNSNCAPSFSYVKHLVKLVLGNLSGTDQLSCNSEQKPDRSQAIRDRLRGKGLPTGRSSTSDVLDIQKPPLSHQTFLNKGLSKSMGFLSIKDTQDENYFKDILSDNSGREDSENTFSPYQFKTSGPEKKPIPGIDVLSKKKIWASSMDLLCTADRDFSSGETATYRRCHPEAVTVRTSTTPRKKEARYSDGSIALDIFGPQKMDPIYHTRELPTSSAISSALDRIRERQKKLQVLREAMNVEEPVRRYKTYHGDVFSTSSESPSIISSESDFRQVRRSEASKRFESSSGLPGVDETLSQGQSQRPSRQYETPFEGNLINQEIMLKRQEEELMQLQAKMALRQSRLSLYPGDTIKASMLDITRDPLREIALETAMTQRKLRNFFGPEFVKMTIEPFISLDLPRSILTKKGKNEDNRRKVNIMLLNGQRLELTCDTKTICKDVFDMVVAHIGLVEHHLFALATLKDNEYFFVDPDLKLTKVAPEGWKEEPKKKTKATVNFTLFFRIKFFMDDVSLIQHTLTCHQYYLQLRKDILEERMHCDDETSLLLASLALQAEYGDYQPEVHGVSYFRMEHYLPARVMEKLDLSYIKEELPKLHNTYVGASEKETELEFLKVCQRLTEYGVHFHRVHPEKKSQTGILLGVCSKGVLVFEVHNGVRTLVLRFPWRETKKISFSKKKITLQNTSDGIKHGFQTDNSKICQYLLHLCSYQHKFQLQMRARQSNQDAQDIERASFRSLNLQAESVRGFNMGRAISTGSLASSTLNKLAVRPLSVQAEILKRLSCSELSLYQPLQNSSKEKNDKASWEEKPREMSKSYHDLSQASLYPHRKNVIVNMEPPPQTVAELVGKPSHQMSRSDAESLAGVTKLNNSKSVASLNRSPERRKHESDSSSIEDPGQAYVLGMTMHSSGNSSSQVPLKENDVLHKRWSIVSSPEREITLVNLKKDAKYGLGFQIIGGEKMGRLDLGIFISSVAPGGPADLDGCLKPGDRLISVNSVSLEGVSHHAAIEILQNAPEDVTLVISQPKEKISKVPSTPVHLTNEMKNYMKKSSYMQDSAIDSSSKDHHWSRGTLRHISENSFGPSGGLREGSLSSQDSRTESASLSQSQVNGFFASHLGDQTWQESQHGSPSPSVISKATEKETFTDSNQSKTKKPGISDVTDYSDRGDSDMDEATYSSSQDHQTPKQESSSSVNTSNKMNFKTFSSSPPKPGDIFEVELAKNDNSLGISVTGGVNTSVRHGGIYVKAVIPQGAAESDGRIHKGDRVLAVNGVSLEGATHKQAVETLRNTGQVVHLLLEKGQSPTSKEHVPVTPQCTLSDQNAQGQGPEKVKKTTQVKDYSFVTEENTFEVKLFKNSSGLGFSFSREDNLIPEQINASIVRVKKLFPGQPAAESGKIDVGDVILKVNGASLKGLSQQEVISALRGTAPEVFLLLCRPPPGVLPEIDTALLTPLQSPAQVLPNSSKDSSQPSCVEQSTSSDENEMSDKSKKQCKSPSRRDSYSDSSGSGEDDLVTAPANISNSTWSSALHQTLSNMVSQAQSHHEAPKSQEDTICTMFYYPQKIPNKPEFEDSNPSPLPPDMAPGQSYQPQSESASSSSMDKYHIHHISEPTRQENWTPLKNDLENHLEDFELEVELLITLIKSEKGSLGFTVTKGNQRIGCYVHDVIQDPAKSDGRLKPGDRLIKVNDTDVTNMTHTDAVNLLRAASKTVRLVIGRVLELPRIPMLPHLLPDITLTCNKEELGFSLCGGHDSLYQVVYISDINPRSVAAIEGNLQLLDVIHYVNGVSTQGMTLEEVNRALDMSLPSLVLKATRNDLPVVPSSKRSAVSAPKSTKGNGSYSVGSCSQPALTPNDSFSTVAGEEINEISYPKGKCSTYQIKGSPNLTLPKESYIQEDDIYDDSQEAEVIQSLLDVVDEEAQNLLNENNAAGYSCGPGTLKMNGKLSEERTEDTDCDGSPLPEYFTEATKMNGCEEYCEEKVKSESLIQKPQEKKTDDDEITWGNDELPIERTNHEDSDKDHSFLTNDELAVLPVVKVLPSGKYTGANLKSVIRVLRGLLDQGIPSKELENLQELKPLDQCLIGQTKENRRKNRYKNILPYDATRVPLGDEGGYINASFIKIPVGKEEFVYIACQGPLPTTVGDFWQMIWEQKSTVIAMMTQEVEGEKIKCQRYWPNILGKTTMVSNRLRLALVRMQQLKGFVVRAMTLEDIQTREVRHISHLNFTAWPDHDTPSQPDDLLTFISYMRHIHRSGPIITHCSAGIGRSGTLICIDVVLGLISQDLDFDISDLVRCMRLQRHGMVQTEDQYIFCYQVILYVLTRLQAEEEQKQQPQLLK
Procedure: (§1) Enzymatic reactions were initiated by the addition of SHP2 (final concentration of 10 nM) to a solution of each of the 658 phytochemical compounds (final concentration of 20 µM) in reaction buffer (20 mM bis-tris pH 6.0, 150 mM NaCl, 2.5 mM dithiothreitol, and 0.01% Triton X-100) containing DiFMUP (final concentration of 140 µM). Changes in the fluorescence intensities were measured continuously for 10 min at Ex/Em = 355/460 nm on a VictorTM X4 multilabel plate reader. Enzyme inhibition was estimated by comparing the reaction velocity in the presence of each compound with that in the absence of any compound. Inhibition of the other PTPs was measured in the same way. Next, we established a screening strategy using a DiFMUP substrate to identify a natural product that inhibits SHP2 activity. Initially, we screened 658 compounds at 20 µM using a 96-well plate system (Figure 2A). […] The selected compounds were tested at 20 µM for SHP2 inhibition, and 14 additional non-receptor-type PTPs (PTP1B, TCPTP, PTPH1, STEP, SHP1, HePTP, PTP-MEG2, PTP-PEST, PTP-BAS, PTP36, PTP-HSCF, PTPD1, LYP, and HD-PTP) were used to investigate the inhibition selectivity. The results were visualized using a heat map analysis by GraphPad Prism (Figure 2B and Table S2 in Supplementary Materials). To identify new SHP2 anticancer natural products, we first performed cloning to express SHP2 protein and then purified it. PTPN11 (Gene ID: 5781) encoding human SHP2 (amino acids sequences 1 to 526) with several extra amino acids were cloned into the MBP-pET 28a (+) vector, which was successfully used to overexpress PTPs with enhanced solubility in an Escherichia coli expression system. Information on amino acids for 15 non-receptor-type PTPs including SHP2 is summarized in Table S3 in the Supplementary Materials. SHP2 was overexpressed in RosettaTM (DE3) and purified using a metal affinity resin (Figure S1 in Supplementary Materials). […] The kcat, KM, and kcat/KM values were determined to be 270 min^−1, 70 μM, and 3.9 μM^−1min^−1, respectively, using the Lineweaver–Burk plot analysis (Table S1 in Supplementary Materials).

PTPN3 (PTPH1) = biological target: T2, PTPN3 (PTPH1) (Homo sapiens, UniProt P26045)
T2 construct: 403-913
T2 sequence (P26045 1-913): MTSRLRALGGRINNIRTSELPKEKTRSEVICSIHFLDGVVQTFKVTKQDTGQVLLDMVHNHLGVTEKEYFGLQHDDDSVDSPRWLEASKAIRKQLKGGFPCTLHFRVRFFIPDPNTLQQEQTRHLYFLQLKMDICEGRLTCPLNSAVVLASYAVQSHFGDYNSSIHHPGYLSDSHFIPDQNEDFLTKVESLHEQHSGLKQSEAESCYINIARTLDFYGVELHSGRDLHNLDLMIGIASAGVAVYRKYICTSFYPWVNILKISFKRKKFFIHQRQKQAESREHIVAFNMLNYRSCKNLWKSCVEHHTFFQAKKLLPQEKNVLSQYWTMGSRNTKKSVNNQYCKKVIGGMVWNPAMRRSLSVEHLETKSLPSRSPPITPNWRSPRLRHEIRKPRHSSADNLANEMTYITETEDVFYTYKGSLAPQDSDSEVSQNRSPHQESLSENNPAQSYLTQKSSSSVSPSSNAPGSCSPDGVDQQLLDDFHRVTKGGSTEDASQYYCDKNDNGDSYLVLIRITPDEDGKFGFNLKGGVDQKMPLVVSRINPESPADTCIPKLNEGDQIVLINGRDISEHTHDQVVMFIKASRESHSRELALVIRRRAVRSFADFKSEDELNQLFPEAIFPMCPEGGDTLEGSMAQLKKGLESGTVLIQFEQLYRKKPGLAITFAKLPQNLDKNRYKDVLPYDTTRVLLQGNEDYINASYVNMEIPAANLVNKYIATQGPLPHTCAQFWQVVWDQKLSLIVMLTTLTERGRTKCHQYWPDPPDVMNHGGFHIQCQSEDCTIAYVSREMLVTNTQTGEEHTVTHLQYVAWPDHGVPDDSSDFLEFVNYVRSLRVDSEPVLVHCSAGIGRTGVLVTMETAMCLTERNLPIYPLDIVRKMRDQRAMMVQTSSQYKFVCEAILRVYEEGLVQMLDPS
Procedure: as §1

PTPN9 (PTP-MEG2) = biological target: T3, PTPN9 (PTP-MEG2) (Homo sapiens, UniProt P43378)
T3 construct: 277-582
T3 sequence (P43378 1-593): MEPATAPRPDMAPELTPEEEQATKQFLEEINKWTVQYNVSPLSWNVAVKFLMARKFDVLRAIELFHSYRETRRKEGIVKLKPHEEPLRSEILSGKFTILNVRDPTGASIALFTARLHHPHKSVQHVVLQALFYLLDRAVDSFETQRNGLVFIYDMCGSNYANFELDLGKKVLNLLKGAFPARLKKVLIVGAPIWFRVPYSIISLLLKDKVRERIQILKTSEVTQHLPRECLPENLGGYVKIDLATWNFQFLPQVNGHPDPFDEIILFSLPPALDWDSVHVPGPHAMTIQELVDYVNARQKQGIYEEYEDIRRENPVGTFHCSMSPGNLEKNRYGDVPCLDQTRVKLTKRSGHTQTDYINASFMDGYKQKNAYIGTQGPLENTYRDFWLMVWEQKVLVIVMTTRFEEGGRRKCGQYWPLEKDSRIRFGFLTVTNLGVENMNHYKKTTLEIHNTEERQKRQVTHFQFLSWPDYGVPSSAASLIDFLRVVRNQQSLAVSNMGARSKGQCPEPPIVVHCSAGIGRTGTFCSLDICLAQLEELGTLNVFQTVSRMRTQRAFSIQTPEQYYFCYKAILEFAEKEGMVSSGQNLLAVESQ
Procedure: as §1

Measured: inhibition at 20 µM

C[C@@H]1CC[C@@]2(OC1)O[C@H]1C[C@H]3[C@@H]4CC=C5C[C@@H](O[C@@H]6O[C@H](CO)[C@@H](O[C@@H]7O[C@@H](CO)[C@H](O)[C@H]7O)[C@H](O)[C@H]6O[C@@H]6O[C@@H](C)[C@H](O)[C@@H](O)[C@H]6O)CC[C@]5(C)[C@H]4CC[C@]3(C)[C@H]1[C@@H]2C [polyphyllin D]
0%: all assays above
